From ChEMBL document CHEMBL1201862, “PubChem BioAssay data set” (2004)
The source made the active and inactive calls.

Experiments:
[1] = biological target: Nuclear receptor subfamily 5 group A member 2 (Homo sapiens, UniProt O00482); type: functional, cell-based;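 note: HEK293T cells transfected with LRH-1 and a StAR promoter luciferase reporter; potency for inhibitors that lower LRH-1 driven reporter light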
[2] = StAR promoter reporter inhibition counter-screen, dose response, counter-screen for LRH-1 inverse agonist project, cell-based, luminescence, luciferase reporter (AID 651969); type: functional
Steroidogenic factor 1 = Steroidogenic factor 1 (Homo sapiens, UniProt Q13285); assay: Counterscreen for inverse agonists of the liver receptor homolog-1 (LRH-1; NR5A2): Luminescence-based cell-based high throughput dose response assay to identify inverse agonists of the Steroidogenic Factor 1 Nuclear Receptor (SF1; NR5A1).; type: functional
Sequence of Steroidogenic factor 1 (Q13285 whole entry): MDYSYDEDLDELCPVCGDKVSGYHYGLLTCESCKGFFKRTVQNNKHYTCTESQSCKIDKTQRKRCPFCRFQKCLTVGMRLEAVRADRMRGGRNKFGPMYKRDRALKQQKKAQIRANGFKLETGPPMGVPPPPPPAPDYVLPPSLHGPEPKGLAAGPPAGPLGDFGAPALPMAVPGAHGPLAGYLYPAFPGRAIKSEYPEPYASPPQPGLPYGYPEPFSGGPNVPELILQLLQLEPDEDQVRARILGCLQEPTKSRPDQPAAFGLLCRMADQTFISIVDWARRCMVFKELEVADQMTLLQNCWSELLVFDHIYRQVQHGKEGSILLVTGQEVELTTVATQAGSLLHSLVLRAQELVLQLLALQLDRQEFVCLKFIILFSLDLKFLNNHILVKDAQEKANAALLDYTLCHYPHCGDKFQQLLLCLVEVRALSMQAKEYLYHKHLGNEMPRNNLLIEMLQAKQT

[3] = biological target: T1, Methionyl-tRNA synthetase, putative (Trypanosoma brucei brucei, UniProt Q38C91); type: functional, Trypanosoma brucei brucei strain 927/4 GUTat10.1
T1 sequence (Q38C91 whole entry): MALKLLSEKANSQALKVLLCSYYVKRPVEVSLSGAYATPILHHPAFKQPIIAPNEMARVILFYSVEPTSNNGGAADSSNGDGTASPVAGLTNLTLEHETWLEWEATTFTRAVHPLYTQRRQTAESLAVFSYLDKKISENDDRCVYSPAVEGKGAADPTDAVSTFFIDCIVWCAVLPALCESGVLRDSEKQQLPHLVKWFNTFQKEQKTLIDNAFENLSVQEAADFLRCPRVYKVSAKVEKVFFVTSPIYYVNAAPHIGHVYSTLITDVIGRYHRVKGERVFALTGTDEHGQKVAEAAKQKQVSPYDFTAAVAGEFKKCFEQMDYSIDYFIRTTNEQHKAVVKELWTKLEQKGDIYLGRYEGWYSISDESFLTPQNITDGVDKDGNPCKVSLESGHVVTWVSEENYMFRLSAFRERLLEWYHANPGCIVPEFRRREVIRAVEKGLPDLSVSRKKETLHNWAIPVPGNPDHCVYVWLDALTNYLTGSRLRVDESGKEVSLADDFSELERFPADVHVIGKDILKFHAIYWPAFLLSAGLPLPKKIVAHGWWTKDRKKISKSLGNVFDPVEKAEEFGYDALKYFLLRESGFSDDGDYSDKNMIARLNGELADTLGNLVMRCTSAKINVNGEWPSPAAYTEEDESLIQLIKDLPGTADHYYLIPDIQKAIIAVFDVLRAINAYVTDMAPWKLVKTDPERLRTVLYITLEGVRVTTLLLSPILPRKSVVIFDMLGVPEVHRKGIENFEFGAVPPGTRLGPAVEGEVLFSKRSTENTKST

[4] = biological target: T2, Calpain-2 catalytic subunit (Sus scrofa, UniProt P43367); assay: pig calpain II inhibitor potency, dose response, biochemical, fluorogenic peptide substrate (AID 1420); type: functional
T2 sequence (P43367 whole entry): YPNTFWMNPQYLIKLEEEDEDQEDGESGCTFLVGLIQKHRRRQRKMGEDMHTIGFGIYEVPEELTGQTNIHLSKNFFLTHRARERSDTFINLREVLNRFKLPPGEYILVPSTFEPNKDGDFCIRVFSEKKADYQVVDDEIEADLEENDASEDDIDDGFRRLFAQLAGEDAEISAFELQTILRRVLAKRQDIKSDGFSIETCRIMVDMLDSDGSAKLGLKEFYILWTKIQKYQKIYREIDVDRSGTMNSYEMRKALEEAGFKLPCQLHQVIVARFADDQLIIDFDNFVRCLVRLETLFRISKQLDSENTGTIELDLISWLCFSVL

[5] = biological target: T1, Methionyl-tRNA synthetase, putative; type: functional, Trypanosoma brucei brucei strain 927/4 GUTat10.1; remark: listed apart in the source
Aminopeptidase N = biological target: T3, Aminopeptidase N (Plasmodium falciparum FcB1/Columbia, UniProt O96935); assay: P. falciparum M1AAP inhibitors, biochemical, fluorogenic H-Leu-NHMec substrate, 1536-well (AID 1445); design: species or system Plasmodium falciparum 3D7, 3D7
T3 sequence (O96935 whole entry): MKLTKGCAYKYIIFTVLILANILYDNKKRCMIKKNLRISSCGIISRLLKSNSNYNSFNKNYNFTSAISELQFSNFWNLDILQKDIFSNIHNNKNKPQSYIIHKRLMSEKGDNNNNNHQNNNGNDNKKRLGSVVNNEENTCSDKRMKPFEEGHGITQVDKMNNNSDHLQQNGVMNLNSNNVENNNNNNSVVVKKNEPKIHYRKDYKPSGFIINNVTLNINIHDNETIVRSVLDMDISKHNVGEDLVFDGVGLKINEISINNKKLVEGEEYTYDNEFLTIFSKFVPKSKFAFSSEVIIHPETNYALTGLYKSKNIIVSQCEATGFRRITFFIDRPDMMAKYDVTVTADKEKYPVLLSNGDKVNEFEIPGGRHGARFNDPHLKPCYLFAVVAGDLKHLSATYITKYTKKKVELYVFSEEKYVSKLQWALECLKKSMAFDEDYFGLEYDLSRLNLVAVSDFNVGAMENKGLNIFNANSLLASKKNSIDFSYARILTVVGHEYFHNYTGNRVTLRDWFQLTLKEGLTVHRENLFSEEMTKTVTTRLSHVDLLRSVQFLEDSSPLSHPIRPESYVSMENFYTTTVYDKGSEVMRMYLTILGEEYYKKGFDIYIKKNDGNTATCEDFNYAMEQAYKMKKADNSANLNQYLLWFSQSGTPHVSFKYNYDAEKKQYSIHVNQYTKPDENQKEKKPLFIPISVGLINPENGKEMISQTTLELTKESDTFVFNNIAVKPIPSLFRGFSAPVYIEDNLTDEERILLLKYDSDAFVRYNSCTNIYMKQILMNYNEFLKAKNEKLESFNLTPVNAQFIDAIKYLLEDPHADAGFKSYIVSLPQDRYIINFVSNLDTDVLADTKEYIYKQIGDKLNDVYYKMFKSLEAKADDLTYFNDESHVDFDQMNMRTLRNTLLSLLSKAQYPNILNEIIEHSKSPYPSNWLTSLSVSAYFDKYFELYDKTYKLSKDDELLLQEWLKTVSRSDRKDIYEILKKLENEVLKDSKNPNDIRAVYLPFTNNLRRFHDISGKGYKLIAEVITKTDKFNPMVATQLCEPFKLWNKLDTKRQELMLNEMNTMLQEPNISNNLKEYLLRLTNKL

[6] = biological target: T4, Corticotropin-releasing factor receptor 2/Corticotropin-releasing factor-binding protein (Homo sapiens, UniProt P24387+Q13324); assay: activators of CRF receptor 2 with binding protein – uHTS hits, confirmation (AID 602473); type: functional; settings: read-out: EC50_Mean
T4 sequence (Q13324 whole entry): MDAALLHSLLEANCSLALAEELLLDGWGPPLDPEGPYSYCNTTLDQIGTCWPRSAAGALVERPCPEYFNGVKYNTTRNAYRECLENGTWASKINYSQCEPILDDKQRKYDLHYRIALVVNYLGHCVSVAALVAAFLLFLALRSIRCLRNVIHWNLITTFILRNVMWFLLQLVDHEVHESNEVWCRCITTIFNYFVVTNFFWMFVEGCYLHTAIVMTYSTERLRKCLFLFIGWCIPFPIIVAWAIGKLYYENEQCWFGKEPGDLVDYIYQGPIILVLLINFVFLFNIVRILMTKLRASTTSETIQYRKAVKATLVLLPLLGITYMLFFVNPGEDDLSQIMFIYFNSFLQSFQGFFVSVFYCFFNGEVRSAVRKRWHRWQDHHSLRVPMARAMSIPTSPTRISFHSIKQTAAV
T4 sequence (P24387 whole entry): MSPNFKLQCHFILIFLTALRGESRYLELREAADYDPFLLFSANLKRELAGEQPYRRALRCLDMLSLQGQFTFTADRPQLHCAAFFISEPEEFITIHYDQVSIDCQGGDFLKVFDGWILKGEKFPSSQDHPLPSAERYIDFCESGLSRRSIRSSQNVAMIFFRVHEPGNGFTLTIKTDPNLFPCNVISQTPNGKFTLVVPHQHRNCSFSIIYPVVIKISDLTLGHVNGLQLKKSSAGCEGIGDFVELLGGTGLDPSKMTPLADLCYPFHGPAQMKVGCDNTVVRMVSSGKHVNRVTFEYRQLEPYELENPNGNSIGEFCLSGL

[7] = biological target: T4, Corticotropin-releasing factor receptor 2/Corticotropin-releasing factor-binding protein; assay: Dose Response confirmation of uHTS hits for small molecule antagonists of the CRF-binding protein and CRF-R2 receptor complex.; type: functional; settings: read-out: IC50_Mean
[8] = CRF-BP/CRF-R2 complex antagonists, dose response, cell-based, uHTS hits, 384-well (AID 651639); type: functional, Homo sapiens; settings: read-out: IC50_Mean
Leucine aminopeptidase = biological target: T5, Leucine aminopeptidase (Plasmodium falciparum 3D7, UniProt Q8IL11); assay: P. falciparum M17LAP inhibitors, primary screen, biochemical, fluorogenic H-Leu-NHMec substrate, 1536-well (AID 1619); type: functional
T5 sequence (Q8IL11 whole entry): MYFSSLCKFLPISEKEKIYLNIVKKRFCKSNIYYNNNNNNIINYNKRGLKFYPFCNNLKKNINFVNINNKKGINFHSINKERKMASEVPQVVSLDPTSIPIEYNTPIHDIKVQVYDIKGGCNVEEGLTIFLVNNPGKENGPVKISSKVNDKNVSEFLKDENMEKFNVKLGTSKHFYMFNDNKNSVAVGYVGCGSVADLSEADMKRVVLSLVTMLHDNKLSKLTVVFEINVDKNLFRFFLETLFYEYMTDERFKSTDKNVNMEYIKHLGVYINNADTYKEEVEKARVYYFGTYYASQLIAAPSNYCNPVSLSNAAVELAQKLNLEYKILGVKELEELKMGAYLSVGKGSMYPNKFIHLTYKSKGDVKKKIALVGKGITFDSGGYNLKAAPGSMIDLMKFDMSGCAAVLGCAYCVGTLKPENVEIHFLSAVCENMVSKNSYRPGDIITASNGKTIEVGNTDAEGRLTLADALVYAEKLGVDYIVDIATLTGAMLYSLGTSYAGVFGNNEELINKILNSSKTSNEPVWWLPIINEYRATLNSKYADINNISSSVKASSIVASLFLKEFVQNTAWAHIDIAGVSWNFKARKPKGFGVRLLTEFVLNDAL

[9] = inhibitors of clade B AD8 Env fusion, dose response, cell-based, cherry-pick (AID 652062); type: functional;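 note: luciferase signal from cell-cell fusion driven by HIV-1 clade B AD8 Env; potency is for inhibitors of fusion seen as a drop in luminescence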
[10] = inhibitors of HIV Env-driven cell fusion, dose response, cherry-pick (AID 652057); type: functional, cell-based
[11] = off-target signal loss in HeLa-CEM21 co-culture – HeLa F-luc CTL cells, cherry-picked, counter-screen for HIV-1 Env fusion inhibitor project, dose response (AID 652040); type: functional, cell-based;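 note: potency for signal decrease marking cytotoxic or nonspecific inhibition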
[12] = ZM109 Env clade C HIV-1 fusion inhibitors, dose response, HeLa effector, CEM target cells, luciferase, cherry-pick (AID 652058); type: functional, cell-based
[13] = biological target: T6, Long-chain-fatty-acid--AMP ligase FadD28 (Mycobacterium tuberculosis, UniProt P9WQ59); assay: Fluorescence polarization aasay to screen for inhibitors that compete for the binding of FadD28 to a bisubstrate Measured in Biochemical System Using Plate Reader - 2147-01_Inhibitor_Dose_CherryPick_Activity.; type: functional, Mycobacterium tuberculosis H37Rv
T6 sequence (P9WQ59 whole entry): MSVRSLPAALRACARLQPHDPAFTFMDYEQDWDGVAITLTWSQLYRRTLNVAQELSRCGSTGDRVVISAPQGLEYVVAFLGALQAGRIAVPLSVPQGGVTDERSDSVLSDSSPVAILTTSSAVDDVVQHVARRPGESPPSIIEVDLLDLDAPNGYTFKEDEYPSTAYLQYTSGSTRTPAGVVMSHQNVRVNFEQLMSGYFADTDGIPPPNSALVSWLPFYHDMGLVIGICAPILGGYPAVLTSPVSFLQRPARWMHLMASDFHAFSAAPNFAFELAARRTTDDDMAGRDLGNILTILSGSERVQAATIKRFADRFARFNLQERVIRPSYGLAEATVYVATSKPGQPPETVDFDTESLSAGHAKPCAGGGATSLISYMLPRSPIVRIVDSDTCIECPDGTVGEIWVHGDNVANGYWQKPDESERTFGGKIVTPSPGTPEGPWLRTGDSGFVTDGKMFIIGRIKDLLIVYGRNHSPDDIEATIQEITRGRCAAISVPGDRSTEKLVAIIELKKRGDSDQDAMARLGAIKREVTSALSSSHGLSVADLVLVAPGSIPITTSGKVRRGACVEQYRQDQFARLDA

[14] = Counterscreen for inhibitors of Trypanosoma brucei methionyl tRNA synthetase (MetRS): Luminescence-based cell-based high throughput dose response assay to identify compounds that are cytotoxic to Jurkat human T lymphocyte cells.; type: functional

Sequence of Nuclear receptor subfamily 5 group A member 2 (O00482 whole entry): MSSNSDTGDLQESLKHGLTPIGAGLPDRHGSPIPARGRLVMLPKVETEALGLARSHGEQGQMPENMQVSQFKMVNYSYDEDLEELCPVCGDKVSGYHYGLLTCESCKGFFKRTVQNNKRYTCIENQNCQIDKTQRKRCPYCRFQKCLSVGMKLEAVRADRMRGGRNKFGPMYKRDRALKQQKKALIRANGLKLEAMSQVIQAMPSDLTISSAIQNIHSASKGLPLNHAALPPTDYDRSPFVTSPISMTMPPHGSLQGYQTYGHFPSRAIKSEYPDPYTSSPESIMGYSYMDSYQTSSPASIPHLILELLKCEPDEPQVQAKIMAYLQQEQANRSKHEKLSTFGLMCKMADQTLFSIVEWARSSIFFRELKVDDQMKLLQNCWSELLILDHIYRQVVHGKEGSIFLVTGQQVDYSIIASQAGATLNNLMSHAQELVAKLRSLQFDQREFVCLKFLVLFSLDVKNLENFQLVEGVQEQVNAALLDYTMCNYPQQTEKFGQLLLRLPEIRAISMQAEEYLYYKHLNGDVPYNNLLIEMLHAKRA

In the case of CS(=O)(=O)c1ccc(-c2cc(NC=O)c3ncc(-c4ccc(F)cc4)n3c2)cc1, the IC50 [1] was 4.22 µM (active), the IC50 [2] was 12.4 µM (inactive) and the IC50 (Steroidogenic factor 1) was 2.73 µM (active).
For O=C(NCc1ccco1)c1cccc(Nc2nc3ccc(Br)cc3[nH]2)c1, the IC50 [3] was 22.3 µM (inactive), the IC50 [4] was 11.9 µM (not active) and the IC50 [5] was 13.5 µM (inactive).
With COc1ccc(/C=C2\SC(NS(=O)(=O)c3cccs3)=NC2=O)cc1 the IC50 (Aminopeptidase N) was 41.1 µM (active), the EC50 [6] was > 53 µM (inactive) and the IC50 [7] was 36.5 µM (active). The IC50 [8] was > 20 µM (inactive) and the IC50 (Leucine aminopeptidase) was 31 µM (active).
With COc1ccc(CCNC(=O)CSc2ccc(NC(C)=O)cc2)cc1OC the IC50 [1] was 17.4 µM (inactive), the IC50 [2] was 35.9 µM (inactive) and the IC50 (Steroidogenic factor 1) was 2.27 µM (active).
In the case of COc1ccc(Nc2c(CCc3ccccc3)nc3nc(C)cc(C)n23)cc1, the AC50 [9] was 4.63 µM (active), the AC50 [10] was 5.27 µM (active) and the AC50 [11] was 4.03 µM (active). For the same molecule, the AC50 [12] was 6.28 µM (active).
In the case of Cc1ccccc1C(=O)NC1CCN(CC(=O)Nc2ccc(Br)cc2)CC1, the IC50 [1] was 35.9 µM (inactive), the IC50 [2] was 35.9 µM (inactive) and the IC50 (Steroidogenic factor 1) was 3.32 µM (active).
For O=C(CN1C(=O)NC2(CCOc3ccccc32)C1=O)c1ccc(Cl)s1 (stereo unspecified), the AC50 [13] was > 100 µM (inactive).
In the case of O=C(NNC(=O)c1cc(-c2cccnc2)nc2ccccc12)Nc1ccc(Cl)cc1, the IC50 [14] was 63 µM (inactive), the IC50 [3] was 39.5 µM (inactive) and the IC50 [5] was 25.8 µM (inactive).
For O=C(c1ccco1)N(Cc1cccc([N+](=O)[O-])c1)c1ccc(Br)cc1, the EC50 [6] was > 53 µM (inactive), the IC50 [7] was < 0.368 µM (active) and the IC50 [4] was 12 µM (not active). For the same molecule, the IC50 [8] was > 20 µM (inactive).
With O=C(OCC(=O)c1c[nH]c2ccccc12)c1ccc(F)c(S(=O)(=O)N2CCOCC2)c1 the AC50 [13] was 60.2 µM (active).
For O=C(NCc1ccco1)c1cccc(Nc2nc3cc(Br)ccc3[nH]2)c1, the IC50 [14] was 83.3 µM (inactive).
